From US11439641B2, “Pyrimidine JAK inhibitors for the treatment of skin diseases” (THERAVANCE BIOPHARMA R&D IP, LLC, priority 2019, dated 2022)

Columns and labels:
JAK1 = JAK1 (Homo sapiens (Human), UniProt P23458); experiment: Biochemical JAK and Tyk2 Kinase Assays (LanthaScreen), JAK1; conditions: 25 μM ATP (Km); pIC50 converted to pKi by Cheng-Prusoff
Procedure: (§1) Assay 1: Biochemical JAK and Tyk2 Kinase Assays
(§2) A panel of four LanthaScreen JAK biochemical assays (JAK1, 2, 3 and Tyk2) were carried in a common kinase reaction buffer (50 mM HEPES, pH 7.5, 0.01% Brij-35, 10 mM MgCl2, and 1 mM EGTA). Recombinant GST-tagged JAK enzymes and a GFP-tagged STAT1 peptide substrate were obtained from Life Technologies.
(§3) Serially or discretely diluted compounds were pre-incubated with each of the four JAK enzymes and the substrate in white 384-well microplates (Corning) at ambient temperature for 1 h. ATP was subsequently added to initiate the kinase reactions in 10 μL total volume, with 1% DMSO. The final enzyme concentrations for JAK1, 2, 3 and Tyk2 are 4.2 nM, 0.1 nM, 1 nM, and 0.25 nM respectively; the corresponding Km ATP concentrations used are 25 μM, 3 μM, 1.6 μM, and 10 μM; while the substrate concentration is 200 nM for all four assays. Kinase reactions were allowed to proceed for 1 hour at ambient temperature before a 10 μL preparation of EDTA (10 mM final concentration) and Tb-anti-pSTAT1 (pTyr701) antibody (Life Technologies, 2 nM final concentration) in TR-FRET dilution buffer (Life Technologies) was added. The plates were allowed to incubate at ambient temperature for 1 h before being read on the EnVision reader (Perkin Elmer). Emission ratio signals (520 nm/495 nm) were recorded and utilized to calculate the percent inhibition values based on DMSO and background controls.
(§4) For dose-response analysis, percent inhibition data were plotted vs. compound concentrations, and IC50 values were determined from a 4-parameter robust fit model with the Prism software (GraphPad Software). Results were expressed as pIC50 (negative logarithm of IC50) and subsequently converted to pKi (negative logarithm of dissociation constant, Ki) using the Cheng-Prusoff equation.

JAK3 = JAK3 (Homo sapiens (Human), UniProt P52333); experiment: Biochemical JAK and Tyk2 Kinase Assays (LanthaScreen), JAK3; conditions: 1.6 μM ATP (Km); pIC50 converted to pKi by Cheng-Prusoff
Sequence of JAK3 (P52333 whole entry): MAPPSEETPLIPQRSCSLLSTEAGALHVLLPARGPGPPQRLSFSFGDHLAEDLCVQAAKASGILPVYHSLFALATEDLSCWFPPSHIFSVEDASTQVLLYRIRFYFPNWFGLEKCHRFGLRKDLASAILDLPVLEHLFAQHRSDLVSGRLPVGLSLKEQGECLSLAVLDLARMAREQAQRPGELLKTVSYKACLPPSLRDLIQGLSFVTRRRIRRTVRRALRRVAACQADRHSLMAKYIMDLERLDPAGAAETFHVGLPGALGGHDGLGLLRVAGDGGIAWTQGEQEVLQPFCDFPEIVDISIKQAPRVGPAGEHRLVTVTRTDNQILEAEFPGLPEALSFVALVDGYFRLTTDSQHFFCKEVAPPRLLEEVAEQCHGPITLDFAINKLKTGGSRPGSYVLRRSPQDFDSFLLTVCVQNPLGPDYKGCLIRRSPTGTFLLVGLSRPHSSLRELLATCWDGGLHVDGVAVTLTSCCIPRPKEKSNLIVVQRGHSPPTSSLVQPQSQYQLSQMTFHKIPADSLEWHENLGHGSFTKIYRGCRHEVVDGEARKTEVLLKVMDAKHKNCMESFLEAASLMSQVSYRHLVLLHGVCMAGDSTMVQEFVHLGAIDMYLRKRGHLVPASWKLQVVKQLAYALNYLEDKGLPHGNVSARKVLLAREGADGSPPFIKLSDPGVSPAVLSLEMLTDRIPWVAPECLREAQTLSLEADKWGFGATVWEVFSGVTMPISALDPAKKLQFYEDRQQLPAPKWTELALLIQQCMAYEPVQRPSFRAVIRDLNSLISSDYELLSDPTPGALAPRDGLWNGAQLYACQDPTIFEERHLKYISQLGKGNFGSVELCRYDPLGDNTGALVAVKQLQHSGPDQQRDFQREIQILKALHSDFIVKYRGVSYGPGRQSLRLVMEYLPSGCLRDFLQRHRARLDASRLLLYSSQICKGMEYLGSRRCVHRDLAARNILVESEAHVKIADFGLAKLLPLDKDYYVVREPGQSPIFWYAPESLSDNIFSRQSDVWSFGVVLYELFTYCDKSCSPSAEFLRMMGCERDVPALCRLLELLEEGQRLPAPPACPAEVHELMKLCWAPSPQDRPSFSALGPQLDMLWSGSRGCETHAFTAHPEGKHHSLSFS
Procedure: as §1, §2, §3, §4

[1] = system: IL-2 stimulated pSTAT5 in Tall-1 T cells; experiment: Inhibition of IL-2 Stimulated pSTAT5 in Tall-1 T Cells; type: cell-based; conditions: Tall-1 human T cell line, IL-2 300 ng/mL, AlphaLisa
Procedure: Assay 2: Inhibition of IL-2 Stimulated pSTAT5 in Tall-1 T Cells
The potency of test compounds for inhibition of interleukin-2 (IL-2) stimulated STATS phosphorylation was measured in the Tall-1 human T cell line (DSMZ) using AlphaLisa. Because IL-2 signals through JAK1/3, this assay provides a measure of JAK1/3 cellular potency.
Phosphorylated STATS was measured via the AlphaLISA SureFire Ultra pSTAT5 (Tyr694/699) kit (PerkinElmer). Human T cells from the Tall-1 cell line were cultured in a 37° C., 5% CO2 humidified incubator in RPMI (Life Technologies) supplemented with 15% Heat Inactivated Fetal Bovine Serum (FBS, Life Technologies), 2 mM Glutamax (Life Technologies), 25 mM HEPES (Life Technologies) and 1× Pen/Strep (Life Technologies). Compounds were serially diluted in DMSO and dispensed acoustically to empty wells. Assay media (phenol red-free DMEM (Life Technologies) supplemented with 10% FBS (ATCC)) was dispensed (4 μL/well) and plates shaken at 900 rpm for 10 mins. Cells were seeded at 45,000 cells/well in assay media (4 μL/well), and incubated at 37° C., 5% CO2 for 1 hour, followed by the addition of IL-2 (R&D Systems; final concentration 300 ng/mL) in pre-warmed assay media (4 μL) for 30 minutes. After cytokine stimulation, cells were lysed with 6 ul of 3× AlphaLisa Lysis Buffer (PerkinElmer) containing 1× PhosStop and Complete tablets (Roche). The lysate was shaken at 900 rpm for 10 minutes at room temperature (RT). Phosphorylated STATS was measured via the pSTAT5 AlphaLisa kit (PerkinElmer). Freshly prepared acceptor bead mixture was dispensed onto lysate (51) under green filtered <100 lux light. Plates were shaken at 900 rpm for 2 mins, briefly spun down, and incubated for 2 hrs at RT in the dark. Donor beads were dispensed (5 μL) under green filtered <100 lux light. Plates were shaken at 900 rpm for 2 minutes, briefly spun down, and incubated overnight at RT in the dark. Luminescence was measured with excitation at 689 nm and emission at 570 nm using an EnVision plate r reader (PerkinElmer) under green filtered <100 lux light.
To determine the inhibitory potency of test compounds in response to IL-2, the average emission intensity of beads bound to pSTAT5 was measured in a human T cell line. IC50 values were determined from analysis of the inhibition curves of signal intensity versus compound concentration. Data are expressed as pIC50 (negative decadic logarithm IC50) values (mean±standard deviation).

Aqueous Solubility Assay = conditions: PBS buffer pH 7.4; maximum upper limit 1,000 μM
[2] = Solubility Assay in Organic Excipients; conditions: maximum upper limit 20,000 μM; for Solubility in MCT (mg/mL): medium chain triglycerides (MCT)
Procedure: Assay 6: Solubility Assay in Organic Excipients
The purpose of this assay was to quantify the solubility of test compounds in different organic excipients such as diisopropyl adipate, medium chain triglycerides (MCT), propylene glycol, and polyethylene glycol. The assay required 80 μL of 100 mM DMSO test compound solution per desired excipient in addition to 40 μL required to make a test standard.
The standard was created by diluting 40 μL of 100 mM DMSO compound stock solution into 160 μL of methanol and was shaken for five minutes to ensure solution uniformity. […] This 20,000 μM solution was run on an Agilent 1260 LC-MS system by injecting 0.2 μL in order to obtain the peak area. For the test solutions, 80 μL of 100 mM DMSO compound stock solution, per excipient, were dried down into a powder overnight. Once in powder form, 400 μL of the desired excipient was added to the powder and allowed to shake vigorously for four hours. The maximum theoretical concentration for this sample solution was 20,000 μM. After four hours of shaking, the samples were centrifuged for 10 minutes at 3,000 RPM before injecting 0.2 μL on the same Agilent 1260 LC-MS system to obtain the peak area.

Sequence of JAK1 (P23458 whole entry): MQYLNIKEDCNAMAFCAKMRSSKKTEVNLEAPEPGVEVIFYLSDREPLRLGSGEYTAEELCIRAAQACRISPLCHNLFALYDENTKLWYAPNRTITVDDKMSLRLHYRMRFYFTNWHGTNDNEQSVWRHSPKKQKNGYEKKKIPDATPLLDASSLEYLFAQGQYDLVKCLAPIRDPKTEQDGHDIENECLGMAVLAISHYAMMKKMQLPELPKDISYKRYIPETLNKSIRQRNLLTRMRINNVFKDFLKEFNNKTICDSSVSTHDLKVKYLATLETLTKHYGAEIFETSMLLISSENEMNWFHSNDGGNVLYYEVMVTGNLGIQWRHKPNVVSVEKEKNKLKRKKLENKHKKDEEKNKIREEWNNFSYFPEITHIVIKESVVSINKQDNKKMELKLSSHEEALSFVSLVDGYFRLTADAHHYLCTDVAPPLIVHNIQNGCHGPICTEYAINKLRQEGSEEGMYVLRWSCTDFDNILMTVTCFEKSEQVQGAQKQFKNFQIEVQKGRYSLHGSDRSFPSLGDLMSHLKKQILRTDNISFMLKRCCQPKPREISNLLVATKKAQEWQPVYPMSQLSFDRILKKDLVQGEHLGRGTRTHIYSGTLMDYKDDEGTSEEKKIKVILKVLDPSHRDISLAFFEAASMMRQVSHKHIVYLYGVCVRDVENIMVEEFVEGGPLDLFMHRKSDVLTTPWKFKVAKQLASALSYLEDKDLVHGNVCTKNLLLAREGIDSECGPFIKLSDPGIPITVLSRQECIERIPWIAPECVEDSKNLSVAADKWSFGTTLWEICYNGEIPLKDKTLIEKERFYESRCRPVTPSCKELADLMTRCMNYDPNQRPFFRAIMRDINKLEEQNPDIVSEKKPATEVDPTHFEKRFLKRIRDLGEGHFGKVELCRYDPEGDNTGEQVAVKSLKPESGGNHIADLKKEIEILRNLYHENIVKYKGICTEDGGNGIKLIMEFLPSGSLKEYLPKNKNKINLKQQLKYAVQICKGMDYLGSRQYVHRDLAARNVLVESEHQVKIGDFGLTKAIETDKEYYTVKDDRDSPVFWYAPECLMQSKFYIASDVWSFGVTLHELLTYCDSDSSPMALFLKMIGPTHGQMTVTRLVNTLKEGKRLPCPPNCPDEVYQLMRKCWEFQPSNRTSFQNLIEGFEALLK

## CCS(=O)(=O)N1[C@@H]2CCC[C@H]1C[C@H](N(C)c1nc(Nc3cc(C)[nH]n3)cc(C3CCOC(C)(C)C3)n1)C2 (stereo partly drawn) [Compound 2, 6-(2,2-dimethyltetrahydro-2H-pyran-4-yl)-N2-((1R,3s,5S)-9-(ethylsulfonyl)-9-azabicyclo[3.3.1]nonan-3-yl)-N2-methyl-N4-(5-methyl-1H-pyrazol-3-yl)pyrimidine-2,4-diamine]
JAK1
  JAK 1 (pKi): B (B represents a pKi value between 9 and 10 (Ki between 1 nM and 0.1 nM))
JAK3
  JAK 3 (pKi): B (B represents a pKi value between 9 and 10 (Ki between 1 nM and 0.1 nM))
[1]
  Tall-1 IL2 pSTAT5 (pIC50): A (A represents a pIC50 value ≥8.0)
Aqueous Solubility Assay
  Solubility at PH 7.4 (μmol): C (C represents a value between 50 and 250)
[2]
  Solubility in PEG400 (mg/mL): C (C represents a value below 5)
  Solubility in Diisopropyl adipate (mg/mL): C (C represents a value below 5)
  Solubility in MCT (mg/mL): C (C represents a value below 5)
  Solubility in Propylene glycol (mg/mL): C (C represents a value below 5)

## CCC(=O)N1[C@@H]2CCC[C@H]1C[C@H](N(C)c1nc(Nc3cc(C)[nH]n3)cc(O[C@@H]3CCOC3)n1)C2 [Compound 17, 1-((1R,3s,5S)-3-(methyl(4-((5-methyl-1H-pyrazol-3-yl)amino)-6-(((R)-tetrahydrofuran-3-yl)oxy)pyrimidin-2-yl)amino)-9-azabicyclo[3.3.1]nonan-9-yl)propan-1-one]
JAK1
  JAK 1 (pKi): B (B represents a pKi value between 9 and 10 (Ki between 1 nM and 0.1 nM))
JAK3
  JAK 3 (pKi): C (C represents a pKi value between 8 and 9 (Ki between 10 nM and 1 nM))
[1]
  Tall-1 IL2 pSTAT5 (pIC50): A (A represents a pIC50 value ≥8.0)
Aqueous Solubility Assay
  Solubility at PH 7.4 (μmol): D (D represents a value between 10 and 50)
[2]
  Solubility in PEG400 (mg/mL): B (B represents a value between 5 and 10)
  Solubility in Diisopropyl adipate (mg/mL): A (A represents a value above 10)
  Solubility in MCT (mg/mL): C (C represents a value below 5)
  Solubility in Propylene glycol (mg/mL): A (A represents a value above 10)

## CCS(=O)(=O)N1[C@@H]2CCC[C@H]1C[C@H](N(C)c1nc(Nc3cc(C)[nH]n3)cc(OC3COC3)n1)C2 [Compound 34, N^2-((1R,3s,5S)-9-(ethylsulfonyl)-9-azabicyclo[3.3.1]nonan-3-yl)-N2-methyl-N4-(5-methyl-1H-pyrazol-3-yl)-6-(oxetan-3-yloxy)pyrimidine-2,4-diamine]
JAK1
  JAK 1 (pKi): A (A represents a pKi value ≥10 (Ki≤0.1 nM))
JAK3
  JAK 3 (pKi): B (B represents a pKi value between 9 and 10 (Ki between 1 nM and 0.1 nM))
[1]
  Tall-1 IL2 pSTAT5 (pIC50): A (A represents a pIC50 value ≥8.0)
Aqueous Solubility Assay
  Solubility at PH 7.4 (μmol): E (E represents a value below 10)
[2]
  Solubility in PEG400 (mg/mL): C (C represents a value below 5)
  Solubility in Diisopropyl adipate (mg/mL): C (C represents a value below 5)
  Solubility in MCT (mg/mL): C (C represents a value below 5)
  Solubility in Propylene glycol (mg/mL): C (C represents a value below 5)

## COC(=O)N1[C@@H]2CCC[C@H]1C[C@H](N(C)c1nc(Nc3cc(C)[nH]n3)cc(C3CCOC3)n1)C2 (stereo partly drawn) [Compound 6, Methyl (1R,3s,5S)-3-(methyl(4-((5-methyl-1H-pyrazol-3-yl)amino)-6-(tetrahydrofuran-3-yl)pyrimidin-2-yl)amino)-9-azabicyclo[3.3.1]nonane-9-carboxylate]
JAK1
  JAK 1 (pKi): A (A represents a pKi value ≥10 (Ki≤0.1 nM))
JAK3
  JAK 3 (pKi): C (C represents a pKi value between 8 and 9 (Ki between 10 nM and 1 nM))
[1]
  Tall-1 IL2 pSTAT5 (pIC50): A (A represents a pIC50 value ≥8.0)
Aqueous Solubility Assay
  Solubility at PH 7.4 (μmol): D (D represents a value between 10 and 50)
[2]
  Solubility in PEG400 (mg/mL): C (C represents a value below 5)
  Solubility in Diisopropyl adipate (mg/mL): C (C represents a value below 5)
  Solubility in MCT (mg/mL): C (C represents a value below 5)
  Solubility in Propylene glycol (mg/mL): C (C represents a value below 5)

## COC(=O)N1[C@@H]2CCC[C@H]1C[C@H](N(C)c1nc(Nc3cc(C)[nH]n3)cc(C3CCOCC3)n1)C2 [Compound 3, methyl (1R,3s,5S)-3-(methyl(4-((5-methyl-1H-pyrazol-3-yl)amino)-6-(tetrahydro-2H-pyran-4-yl)pyrimidin-2-yl)amino)-9-azabicyclo[3.3.1]nonane-9-carboxylate]
JAK1
  JAK 1 (pKi): B (B represents a pKi value between 9 and 10 (Ki between 1 nM and 0.1 nM))
JAK3
  JAK 3 (pKi): B (B represents a pKi value between 9 and 10 (Ki between 1 nM and 0.1 nM))
[1]
  Tall-1 IL2 pSTAT5 (pIC50): A (A represents a pIC50 value ≥8.0)
Aqueous Solubility Assay
  Solubility at PH 7.4 (μmol): E (E represents a value below 10)
[2]
  Solubility in PEG400 (mg/mL): C (C represents a value below 5)
  Solubility in Diisopropyl adipate (mg/mL): C (C represents a value below 5)
  Solubility in MCT (mg/mL): C (C represents a value below 5)
  Solubility in Propylene glycol (mg/mL): C (C represents a value below 5)
